pIC50: −log10 of the molar value. Where two headings read alike, the source gives them in different places.

In test [1] the target is T1, mineralcorticoid receptor (Homo sapiens, UniProt P08235).
T1 sequence (P08235 1-984): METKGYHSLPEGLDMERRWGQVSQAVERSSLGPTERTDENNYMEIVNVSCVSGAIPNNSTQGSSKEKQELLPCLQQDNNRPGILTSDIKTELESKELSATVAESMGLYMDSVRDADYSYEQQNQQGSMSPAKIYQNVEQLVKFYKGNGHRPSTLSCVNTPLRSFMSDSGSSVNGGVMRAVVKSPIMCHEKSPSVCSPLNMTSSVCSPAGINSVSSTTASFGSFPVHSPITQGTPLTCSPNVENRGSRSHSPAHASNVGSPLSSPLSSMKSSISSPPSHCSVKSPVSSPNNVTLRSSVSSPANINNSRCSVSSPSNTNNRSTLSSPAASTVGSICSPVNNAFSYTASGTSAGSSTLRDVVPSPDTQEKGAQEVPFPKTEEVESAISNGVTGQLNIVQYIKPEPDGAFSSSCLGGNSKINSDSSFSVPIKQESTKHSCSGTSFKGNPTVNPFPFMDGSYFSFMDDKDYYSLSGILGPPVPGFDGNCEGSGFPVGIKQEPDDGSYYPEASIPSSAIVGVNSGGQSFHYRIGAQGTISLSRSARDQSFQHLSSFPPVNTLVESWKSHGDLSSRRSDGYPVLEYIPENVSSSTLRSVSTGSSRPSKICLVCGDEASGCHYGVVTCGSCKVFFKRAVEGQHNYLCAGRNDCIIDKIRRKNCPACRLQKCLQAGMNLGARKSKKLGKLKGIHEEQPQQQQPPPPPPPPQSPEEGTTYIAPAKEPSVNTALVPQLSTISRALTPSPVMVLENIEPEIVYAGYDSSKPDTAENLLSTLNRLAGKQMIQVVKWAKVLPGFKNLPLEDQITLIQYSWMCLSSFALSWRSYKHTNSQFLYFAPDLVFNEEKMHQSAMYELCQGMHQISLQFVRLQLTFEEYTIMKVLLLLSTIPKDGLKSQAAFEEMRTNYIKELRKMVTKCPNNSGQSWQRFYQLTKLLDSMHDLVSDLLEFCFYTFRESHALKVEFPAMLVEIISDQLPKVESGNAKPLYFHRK
The test can be described thus: MR antagonism luciferase reporter cell line assay. The test is classed as cell-based. The procedure:
The derivatives according to the invention having the general chemical formula have a very strong gestagenic activity. […] They should therefore have in vivo potassium-retaining, natriuretic (antimeralcorticoid) action. These properties were determined using the test described below:
For the culturing of the cells used for the assay, the culture medium used was DMEM (Dulbecco's Modified Eagle Medium: […] of glucose; PAA, #E15-009) with 10% FCS (Biochrom, S0115, batch #615B), 4 mM L-glutamine, 1% penicillin/streptomycin, 1 mg/ml of G418 and 0.5 μg/ml of puromycin.
Reporter cell lines were grown in a density of 4×10^4 cells per hollow in white, nontransparent tissue culture plates in each case having 96 hollows (PerkinElmer, #P12-106-017) and kept in 6% DCC-FCS (activated carbon-treated serum, for the removal of interfering components contained in the serum). The compounds to be investigated were added eight days later, and the cells were incubated with the compounds for 16 hours. The experiments were carried out in triplicate. At the end of the incubation, the effector-containing medium was removed and replaced by lysis buffer. After luciferase assay substrate (promega, #E1501) had been added, the plates containing the 96 hollows were then introduced into a microplate luminometer (Pherastar, BMG labtech), and the luminescence was measured. The […] values were evaluated using software for the calculation of dose-activity relationships.
For orientation: Reporter assays use an easily measured gene product as a stand-in for the process of interest.

In test [2] the target is T2, PR (Rattus norvegicus, UniProt Q63449).
T2 construct: from tissue; host or cells: whole animal: pregnant, ovariectomized rats
T2 sequence (Q63449 1-923): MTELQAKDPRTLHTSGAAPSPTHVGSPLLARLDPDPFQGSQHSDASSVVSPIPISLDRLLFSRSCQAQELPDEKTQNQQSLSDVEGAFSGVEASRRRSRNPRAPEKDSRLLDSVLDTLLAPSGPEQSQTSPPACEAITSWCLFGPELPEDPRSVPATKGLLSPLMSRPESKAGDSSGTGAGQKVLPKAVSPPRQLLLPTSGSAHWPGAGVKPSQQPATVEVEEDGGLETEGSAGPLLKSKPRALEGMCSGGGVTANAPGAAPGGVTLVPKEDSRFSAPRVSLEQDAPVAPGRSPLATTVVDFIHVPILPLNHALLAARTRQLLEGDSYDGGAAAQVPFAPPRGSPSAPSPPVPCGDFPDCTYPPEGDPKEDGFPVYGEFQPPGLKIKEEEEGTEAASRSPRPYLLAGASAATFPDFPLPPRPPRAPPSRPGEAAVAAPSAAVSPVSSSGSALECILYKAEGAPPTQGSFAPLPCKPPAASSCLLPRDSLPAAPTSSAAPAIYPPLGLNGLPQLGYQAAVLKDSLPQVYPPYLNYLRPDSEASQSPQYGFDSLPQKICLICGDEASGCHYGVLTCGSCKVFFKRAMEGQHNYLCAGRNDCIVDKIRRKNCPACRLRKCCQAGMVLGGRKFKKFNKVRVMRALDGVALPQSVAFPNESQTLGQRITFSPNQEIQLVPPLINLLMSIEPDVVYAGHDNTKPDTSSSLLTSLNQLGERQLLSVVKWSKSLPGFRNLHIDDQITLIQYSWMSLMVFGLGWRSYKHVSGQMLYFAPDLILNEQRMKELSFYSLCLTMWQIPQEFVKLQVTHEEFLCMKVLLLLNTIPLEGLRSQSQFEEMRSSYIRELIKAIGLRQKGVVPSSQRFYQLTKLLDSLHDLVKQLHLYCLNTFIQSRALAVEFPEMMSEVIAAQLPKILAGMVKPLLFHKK
The test is described as follows: maintenance of pregnancy test on the rat. The test is classed as in vivo. The note with it: ovarectomized pregnant rats; for PR in vivo ED50 (pregnancy-maintaining dose): s.c. once daily from day 8 to day 15 or 21, with oestrone 5 μg/kg/day. From the text:
Carrying out the maintenance of pregnancy test on the rat:
In pregnant rats, the removal of the corpora lutea or oophorectomy induces an abortion. By means of the exogenous administration of progestins (gestagens) in combination with a suitable dose of an oestrogen, the maintenance of pregnancy is possible. The maintenance of pregnancy test on ovarectomized rats serves for the determination of the peripheral gestagenic activity of a compound.
Rats were paired overnight during proestrus. Pairing was checked on the morning of the following day by the appraisal of a vaginal smear. The presence of the sperm was evaluated here as day 1 of a commencing pregnancy. On day 8 of the pregnancy, the animals were ovarectomized under ether anaesthesia. The treatment with test compound and exogenous oestrogen (oestrone, 5 μg/kg/day) was carried out subcutaneously once daily from day 8 to day 15 or day 21 of the pregnancy. The first administration on day 8 was carried out two hours before oophorectomy. Intact control animals were given exclusively vehicle.
At the end of the experiment (day 15 or day 21), the animals were sacrificed under a CO2 atmosphere, and live foetuses (foetuses having a beating heart) and implantation sites (early resorptions and dead foetuses including autolysis and atrophic placentas) were counted in both uterine horns. On day 22, it was moreover possible to examine foetuses for malformations. In uteri without foetuses or implantation sites, the number of nidation sites was determined by staining with 10% strength ammonium sulphide solution. The maintenance of pregnancy rate was calculated as the quotient of the number of living foetuses and the total number of nidation sites (both resorbed and dead foetuses and nidation sites). For drospirenone, this value is 3.5 mg/kg/day.

Where [3] appears, read: reporter cell lines, 16 hours incubation, luciferase luminescence.
[4] abbreviates: reporter cell lines, 16 hours incubation, luciferase luminescence, read-out: MR Antagonism IC50.

A word on the pIC50: it is the IC50 on a negative log10 scale, so that one unit is a factor of ten. On to `C[C@]12CC[C@H]3[C@@H](CC4(CC4)C4=CC(=O)CC[C@@]43C)[C@@H]1CC[C@@H]2C#N`, for which the pIC50 in test [1] was 7.70. Also, the “MR Antagonism activity [% of the maximum effect]” value in test [1] (setting [3]) is on record as 99.16 % of the maximum effect. Moreover, the “PR in vivo ED50 (pregnancy-maintaining dose)” value (shortened to “PR in vivo ED50”) in test [2] turned out to be 25.0 mg/kg/d s.c.
As to `C[C@]12CC[C@H]3[C@@H]([C@H]4C[C@H]4C4=CC(=O)CC[C@@]43C)[C@@H]1[C@@H]1C[C@@H]1[C@@H]2C#N` [6β,7β-15β,16β-Bismethylene-17β-cyanoandrost-4-en-3-one], the pIC50 in test [1] was 8.33. Besides, the “MR Antagonism activity [% of the maximum effect]” value in test [1] (setting [3]) is 98.06 % of the maximum effect. The “PR in vivo ED50” value in test [2] is given as 7.3 mg/kg/d s.c.
For the molecule `C=CC[C@]1(C#N)CC[C@H]2[C@@H]3CCC4=CC(=O)CC[C@]4(C)[C@H]3CC[C@@]21C` [17α-Allyl-17β-cyanoandrost-4-en-3-one], in test [1] (setting [3]), the “MR Antagonism activity [% of the maximum effect]” value is 65.30 % of the maximum effect. Moreover, the pIC50 in test [1] (setting [4]) was 6.00.
As for `C[C@]12CCC(=O)C=C1CC[C@H]1[C@@H]3[C@@H]4C[C@@H]4[C@](C)(C#N)[C@@]3(C)CC[C@@H]12` [17β-Cyano-17α-methyl-15β,16β-methyleneandrost-4-en-3-one], in test [1] (setting [3]), the “MR Antagonism activity [% of the maximum effect]” value is 98.30 % of the maximum effect. In addition, in test [1] (setting [4]), the pIC50 was 7.38. For the same molecule, the “PR in vivo ED50” value in test [2] came to 10.0 mg/kg/d s.c.
Consider `C[C@]12CCC(=O)C=C1[C@@H]1C[C@@H]1[C@H]1[C@@H]3[C@@H]4C[C@@H]4[C@@]4(CCC(=O)O4)[C@@]3(C)CC[C@@H]12` [drospirenone, 6β,7β-15β,16β-dimethylene-3-oxo-17-pregn-4-ene-21,17β-carbolactone, reference compound], for which the “pregnancy-maintaining dose (ED50)” value in test [2] (subcutaneous, with oestrone 5 μg/kg/day) is listed as 3.5 mg/kg/day.

Values taken from patent US20100292184A1, “17BETA-CYANO-19-ANDROST-4-ENE DERIVATIVE, ITS USE AND MEDICAMENTS COMPRISING THE DERIVATIVE” (BAYER SCHERING PHARMA AG, priority 2007, published 2010).
